Measured values as given in article PMC10350924, “Design, Synthesis, and Pharmacological Characterization of a Potent Soluble Epoxide Hydrolase Inhibitor for the Treatment of Acute Pancreatitis” (Journal of Medicinal Chemistry, 2023).

Legend:
[1] = UGTs/CYPs dual-activity mouse liver microsomal stability; assay type: in vitro ADME; conditions: for UGTs/CYPs dual-activity mouse liver microsomal stability: 5 μM, NADPH + UDP-GlcUA; for half-life at 5 µM / microsomal CLint at 1 h, 5 µM / half-life at 1 h, 5 µM: CD-1, mouse liver microsomes; for half-life at 5 µM / half-life at 1 h, 5 µM: 0.693/k, read-out: in vitro half-life; for microsomal CLint at 1 h, 5 µM: read-out: microsomal intrinsic clearance (CLint,micr)
Procedure: Initially, the chemical stability of the compounds was studied in phosphate buffer at pH 7.4. […] The same stability was evident in mouse plasma at two different time points (1 and 2 h, Table 2). In addition, all the compounds were subjected to an in vitro microsomal stability assay. In this assay, the metabolism of the parent compound over time (up to 60 min) was measured by liquid chromatography–mass spectrometry (LC–MS) in the presence of CYP450 and UGTs (uridine 5′-diphospho-glucuronosyltransferases) microsomal systems. The measurement of hepatic metabolism also allowed the determination of different pharmacokinetic parameters such as in vitro intrinsic clearance (CLint,micr) and to predict in vivo intrinsic clearance (CLint). The predicted in vivo CLint values were calculated using a microsomal protein value of 45 mg per gram of liver tissue and 87 g of liver per kg of body weight. The microsomal stability assay was validated using testosterone (low stability in the presence of NADPH), 2-naphthol (low stability using NADPH and UDPGA cofactors), and 3-(α-acetonylbenzyl)-4-hydroxy coumarin (high stability in dual-activity assay) as positive controls. To detect nonspecific protein binding or heat instability, the compounds were incubated without cofactors (negative control). Moreover, since microsomal concentrations > 2 mg mL^–1 are not recommended due to a potential negative impact of increased nonspecific binding on the rate of metabolism,[25] in our assay we used a low concentration of liver microsomes (0.5 mg mL^–1).
For microsomal stability assay, 25 μL of 5 mg mL^–1 mouse (CD-1) microsomes (Thermo Fisher Scientific, Bremen, Germany) were preincubated for 5 min at 37 °C with alamethicin and 2.5 μL of each sample (5 μM). The reaction started by adding a 50 μL mixture of 10 mM NADPH and UDP-GlcUA as cofactors (1:1 v/v) and was carried out at 37 °C for 15, 30, and 60 min in a Thermomixer comfort. The reaction was stopped by the addition of 200 μL of ice-cold methanol containing IS, and then samples were centrifuged at 14,680 rpm at 25 °C for 7 min (Eppendorf microcentrifuge 5424, Hamburg, Germany). The supernatants were collected and injected in LC-MS.
The control at 0 min was obtained by the addition of the organic solvent immediately after incubation with microsomes. Testosterone, 2-naphthol, and 3-(α-acetonylbenzyl)-4-hydroxy coumarin were used as the positive controls, while the negative control was prepared by incubation for up to 60 min without cofactors. The extent of metabolism is expressed as a percentage of the parent compound turnover. All experiments were performed in triplicate.

[2] = tested on: EETs, DHETs and HETEs in pancreas homogenates; assay: Targeted metabololipidomics of pancreas homogenates (cerulein AP mice); assay type: in vivo; conditions: not statistically significant
Procedure: The extraction of targeted lipid mediators from pancreas was performed as follows: tissues were lyophilized and weighted, 10 mg was homogenized and deproteinized with 500 μL of ice-cold 10% v/v MeOH spiked with labeled standards, and subsequently diluted with 500 μL of phosphate-buffered saline (PBS). Samples were then loaded on solid-phase extraction cartridges, Strata-X reversed-phase SPE columns (100 mg/3 mL) (Phenomenex, Bologna, Italy). Cartridges were conditioned with 3 mL of MeOH and equilibrated with 3 mL of ddH2O. Following loading, washed with 1 mL of 10% MeOH v/v, and finally eluted with 1.5 mL of MeOH. Eluted samples were dried with a SpeedVac (Savant, Thermo Scientific, Milan, Italy) and dissolved prior to UHPLC-MS/MS analyses in 50 μL of UHPLC solvent A.
The analyses were acquired using a Shimadzu Nexera UHPLC (Kyoto, Japan) coupled online to a triple quadrupole LCMS-8050 (Shimadzu) equipped with an electrospray ionization (ESI) source operating in ESI negative mode. The separation was performed on a Kinetex EVO C18 150 mm × 2.1 mm, 2.6 μm (100 Å) (Phenomenex, Bologna, Italy). The flow rate was set to 0.4 mL/min, and the column oven was set at 40 °C. The mobile phases were, respectively: (A) ACN/H2O 45:55 acidified with 0.02% CH3COOH v/v and (B) ACN/IPA 50:50. The following gradient was used: 0 min, 0%B, 0–12 min 60%B, 12.10 min, 60–99%B, 12.10–13.05 isocratic to 99% B; returning to 0% B in 0.1. MS source parameters: desolvation Line (DL) 250 °C, interface: 300 °C, block heater 350 °C, nebulizing (N2), drying (N2), and heating (Air) gas pressures: 3, 10, 10 L/min. Each analyte was optimized by infusing standard solution at 0.2 mg/mL, multiple reaction monitoring (MRM) mode was used. Detailed MRM parameters are available in Table S3. […]

UGTs/CYPs dual-activity mouse liver microsomal stability ([1]; 0.25 h, 0.5 mg mL–1 microsomes) [%] | UGTs/CYPs dual-activity mouse liver microsomal stability ([1]; 0.5 h) [%] | UGTs/CYPs dual-activity mouse liver microsomal stability ([1]; 1.0 h) [%] | half-life at 5 µM [1] [min] | microsomal CLint at 1 h, 5 µM [1] [µL/min/mg] | Structure (SMILES) | half-life at 1 h, 5 µM [1] [min] | change of DHET levels with respect to vehicle [2] [%] | change of EETs levels with respect to vehicle [2] | change of HETEs levels (15-HETE, 12-HETE, 5-HETE) with respect to vehicle [2] [%]
16.6 ± 1.4 | 9.3 ± 0.6 | 5.7 ± 0.2 | 16 | 86.6 | O=C(NCC12C[C@H]3C[C@@H](C1)C[C@@H](C2)C3)Nc1ccc2c(ccn2CCc2ccc(F)cc2)c1 [Compound 30, 1-(((3R,5R,7R)-Adamantan-1-yl)methyl)-3-(1-(4-fluorophenethyl)-1H-indol-5-yl)urea] |  |  |  | 
20.4 ± 1.8 | 11.9 ± 0.6 | 2.4 ± 0.4 |  | 118 | O=C(NCC12C[C@H]3C[C@@H](C1)C[C@@H](C2)C3)Nc1ccc2c(ccn2C(=O)c2ccc(F)cc2)c1 [Compound 36, 1-(((3R,5R,7R)-Adamantan-1-yl)methyl)-3-(1-(4-fluorobenzoyl)-1H-indol-5-yl)urea] | 11.8 |  |  | 

Continued, compound first:

Structure (SMILES) | UGTs/CYPs dual-activity mouse liver microsomal stability ([1]; 0.25 h, 0.5 mg mL–1 microsomes) [%] | UGTs/CYPs dual-activity mouse liver microsomal stability ([1]; 0.5 h) [%] | UGTs/CYPs dual-activity mouse liver microsomal stability ([1]; 1.0 h) [%] | half-life at 5 µM [1] [min] | microsomal CLint at 1 h, 5 µM [1] [µL/min/mg] | half-life at 1 h, 5 µM [1] [min] | change of DHET levels with respect to vehicle [2] [%] | change of EETs levels with respect to vehicle [2] | change of HETEs levels (15-HETE, 12-HETE, 5-HETE) with respect to vehicle [2] [%]
O=C(Nc1ccc2c(c1)CCN2Cc1ccc(F)cc1)NC12C[C@H]3C[C@@H](C1)C[C@@H](C2)C3 [Compound 6, 1-((3S,5S,7S)-Adamantan-1-yl)-3-(1-(4-fluorobenzyl)indolin-5-yl)urea] | 21.3 ± 0.9 | 10.9 ± 0.1 | 10.6 ± 0.1 | 20.4 | 67.8 |  |  |  | 
O=C(NCC12C[C@H]3C[C@@H](C1)C[C@@H](C2)C3)Nc1ccc2c(ccn2Cc2ccc(F)cc2)c1 [Compound 27, 1-(((3R,5R,7R)-Adamantan-1-yl)methyl)-3-(1-(4-fluorobenzyl)-1H-indol-5-yl)urea] | 8.4 ± 0.3 | 3.2 ± 1.0 | 2.1 ± 0.7 | 11.9 | 117 |  |  |  | 
CC(C)c1ccc(Cn2ccc3cc(NC(=O)NCC45C[C@H]6C[C@@H](C4)C[C@@H](C5)C6)ccc32)cc1 [Compound 28, 1-(((3R,5R,7R)-Adamantan-1-yl)methyl)-3-(1-(4-isopropylbenzyl)-1H-indol-5-yl)urea] | 91.5 ± 2.2 | 69.8 ± 2.9 | 53.1 ± 2.8 |  | 22 | 62.9 | −31.5 | +21.9% | −13.4
